Data from patent publication US9676782B2, “Substituted pyrazolo[1,5-a]pyrazines as negative allosteric modulators of metabotropic glutamate receptor 3” (Vanderbilt University, priority 2014, dated 2017).
Like-named read-outs stand apart in the source and are kept apart here.

Tests used:
[1] = target: rat mGlu3 (Rattus norvegicus (Rat), UniProt P31422); test: mGlu3 Ca2+ flux assay; format: cell-based; settings: for remaining activity at 30 µM: amplitude of response at 30 μM test compound as % of maximal response to glutamate, read-out: rat mGlu3 Glu max (%); for mGlu3 Glu max: response at 30 μM compound as percentage of maximal glutamate response
rat mGlu3, sequence (P31422 23-879): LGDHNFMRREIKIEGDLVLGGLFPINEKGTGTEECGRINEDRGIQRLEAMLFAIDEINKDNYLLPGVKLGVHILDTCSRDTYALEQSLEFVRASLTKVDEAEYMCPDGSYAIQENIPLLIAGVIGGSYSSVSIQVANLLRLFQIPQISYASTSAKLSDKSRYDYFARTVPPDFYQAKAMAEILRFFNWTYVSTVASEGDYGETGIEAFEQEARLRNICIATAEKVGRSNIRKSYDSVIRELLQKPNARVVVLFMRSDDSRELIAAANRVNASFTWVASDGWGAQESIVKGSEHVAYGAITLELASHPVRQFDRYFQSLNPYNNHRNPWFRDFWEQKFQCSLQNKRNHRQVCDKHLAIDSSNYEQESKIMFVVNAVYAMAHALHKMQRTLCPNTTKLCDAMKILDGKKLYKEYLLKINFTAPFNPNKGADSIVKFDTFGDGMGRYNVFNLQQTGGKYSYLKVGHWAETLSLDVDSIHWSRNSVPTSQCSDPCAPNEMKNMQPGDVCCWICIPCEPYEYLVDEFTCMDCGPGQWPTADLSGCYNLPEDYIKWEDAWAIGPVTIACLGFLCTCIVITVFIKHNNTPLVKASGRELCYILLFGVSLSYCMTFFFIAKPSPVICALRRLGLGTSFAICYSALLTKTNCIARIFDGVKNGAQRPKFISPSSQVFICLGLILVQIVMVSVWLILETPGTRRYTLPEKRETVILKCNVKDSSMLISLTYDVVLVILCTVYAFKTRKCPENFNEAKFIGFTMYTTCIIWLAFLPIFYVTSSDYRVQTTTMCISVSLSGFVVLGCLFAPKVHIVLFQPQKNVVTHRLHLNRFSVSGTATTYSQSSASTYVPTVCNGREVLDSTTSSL
Procedure: (§1) The cells were grown overnight at 37° C. in the presence of 5% CO2. […] Dye was removed, 20 μL of assay buffer was added, and the plate was incubated for 10 minutes at room temperature. Ca^2+ flux was measured using the Functional Drug Screening System (FDSS7000, Hamamatsu, Japan). […] All test compounds were dissolved and diluted to a concentration of 10 mM in 100% DMSO. […] Calcium fluorescence measures were recorded as fold over basal fluorescence; raw data was then normalized to the maximal response to glutamate. […] The raw data file containing all time points was used as the data source in the analysis template. This was saved by the FDSS as a tab-delimited text file. Data were normalized using a static ratio function (F/F0) for each measurement of the total 360 values per well divided by each well's initial value. […] This is sufficient time to capture the peak amplitude of the cellular calcium response. […] EC50 values for test compounds were generated by fitting the normalized values versus the log of the test compound concentration (in mol/L) using a 4 parameter logistic equation where none of the parameters were fixed. Each of the three values collected at each concentration of test compound were weighted evenly.

[2] = target: rat mGlu5 (Rattus norvegicus (Rat), UniProt P31424); test: mGlu5 Ca2+ flux assay; format: cell-based; settings: for Fold selectivity (mGlu3 vs. mGlu5): ratio of rat mGlu5 EC50 or IC50 to rat mGlu3 IC50; for Emax at 30 µM: PAM, amplitude of response at 30 μM test compound as % of maximal response to glutamate, read-out: rat mGlu5 Glu max (%); for mGlu5 Glu max: response at 30 μM compound as percentage of maximal glutamate response
rat mGlu5, sequence (P31424 21-1203): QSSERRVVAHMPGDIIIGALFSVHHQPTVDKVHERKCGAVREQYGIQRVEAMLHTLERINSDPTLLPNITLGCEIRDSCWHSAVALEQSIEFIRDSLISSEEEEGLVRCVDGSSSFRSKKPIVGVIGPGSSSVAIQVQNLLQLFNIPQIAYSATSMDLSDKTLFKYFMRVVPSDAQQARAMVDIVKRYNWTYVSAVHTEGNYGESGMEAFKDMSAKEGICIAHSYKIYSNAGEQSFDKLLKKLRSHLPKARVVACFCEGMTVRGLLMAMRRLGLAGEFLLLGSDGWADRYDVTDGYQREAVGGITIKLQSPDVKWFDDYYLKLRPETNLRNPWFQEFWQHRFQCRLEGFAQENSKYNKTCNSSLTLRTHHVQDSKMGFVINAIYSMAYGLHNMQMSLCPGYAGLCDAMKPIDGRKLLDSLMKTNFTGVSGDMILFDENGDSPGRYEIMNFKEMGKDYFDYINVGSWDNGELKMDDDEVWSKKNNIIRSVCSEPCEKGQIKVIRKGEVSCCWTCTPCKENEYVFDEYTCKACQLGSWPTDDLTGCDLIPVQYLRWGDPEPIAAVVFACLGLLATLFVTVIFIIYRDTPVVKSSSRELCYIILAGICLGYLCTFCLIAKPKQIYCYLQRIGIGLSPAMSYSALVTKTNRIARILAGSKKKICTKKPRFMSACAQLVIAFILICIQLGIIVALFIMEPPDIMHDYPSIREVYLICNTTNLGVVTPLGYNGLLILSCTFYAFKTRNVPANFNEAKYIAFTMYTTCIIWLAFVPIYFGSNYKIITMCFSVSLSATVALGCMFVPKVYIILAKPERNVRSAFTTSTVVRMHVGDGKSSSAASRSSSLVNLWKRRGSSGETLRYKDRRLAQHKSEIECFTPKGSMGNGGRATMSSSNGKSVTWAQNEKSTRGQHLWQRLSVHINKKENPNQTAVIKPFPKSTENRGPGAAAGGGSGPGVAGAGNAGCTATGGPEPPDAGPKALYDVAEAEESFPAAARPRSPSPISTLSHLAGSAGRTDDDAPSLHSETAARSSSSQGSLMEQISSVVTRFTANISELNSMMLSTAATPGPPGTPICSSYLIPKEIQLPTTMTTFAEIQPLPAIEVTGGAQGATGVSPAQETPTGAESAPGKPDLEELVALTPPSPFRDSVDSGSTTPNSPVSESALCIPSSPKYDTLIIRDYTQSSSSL
Procedure: as §1, with “for 5” for “for 10”

[3] = NAM potency, decrease of glutamate EC80 response, >30,000 = no measurable activity, >10,000 = no plateau, read-out: rat mGlu3 IC50
[4] = read-out: rat mGlu5 EC50 or IC50
[5] = Table 2 compounds with X = NH, read-out: mGlu3 IC50
[6] = Table 2 compounds with X = NH, read-out: mGlu5 EC50

Row | Compound | IC50 [1, 3] [nM] | remaining activity at 30 µM [1] [%] | Fold selectivity (mGlu3 vs. mGlu5) [2] | EC50 [2, 4] [nM] | Emax at 30 µM [2] [%] | IC50 [1, 5] [nM] | mGlu3 Glu max ([1]; Table 2 compounds with X = NH) [%] | EC50 [2, 6] [nM] | mGlu5 Glu max ([2]; Table 2 compounds with X = NH) [%] | IC50 ([1]; read-out: rat mGlu3 IC50) [nM]
1 | C[C@H]1CN(c2ccc(F)cc2)C(=O)c2cc(CNc3ccc(CC#N)cc3)nn21 [Compound 67, (S)-2-(4-(((5-(4-fluorophenyl)-7-methyl-4-oxo-4,5,6,7-tetrahydropyrazolo[1,5-a]pyrazin-2-yl)methyl)amino)phenyl)acetonitrile] | 2560 | 1.96 | >11 | > 30000 | – | – | – | – | – | –
2 | Cc1ccnc(NCc2cc3n(n2)CCN(c2ccc(F)cc2)C3=O)c1 [Compound 161, 5-(4-fluorophenyl)-2-(((4-methylpyridin-2-yl)amino)methyl)-6,7-dihydropyrazolo[1,5-a]pyrazin-4(5H)-one] | 3750 | 1.14 | >8.0 | > 30000 | – | – | – | – | – | –
3 | COc1ccc(NCc2cc3n(n2)CCN(c2ccc(F)c(F)c2)C3=O)cc1 [Compound 1, 5-(3,4-Difluorophenyl)-2-(((4-methoxyphenyl)amino)methyl)-6,7-dihydropyrazolo[1,5-a]pyrazin-4(5H)-one] | – | 4.04 | >20 | > 30000 | – | – | – | – | – | –
4 | Cc1ccc(NCc2cc3n(n2)CCN(c2ccc(F)cc2)C3=O)c(F)c1 [Compound 35, 2-(((2-fluoro-4-methylphenyl)amino)methyl)-5-(4-fluorophenyl)-6,7-dihydropyrazolo[1,5-a]pyrazin-4(5H)-one] | 799 | 1.68 | 5.97 | 4770 | 97.4 | – | – | – | – | –
5 | O=C1c2cc(CNc3ccc(OC(F)F)cc3F)nn2CCN1c1cc(F)cc(F)c1 [Compound 152, 2-(((4-(difluoromethoxy)-2-fluorophenyl)amino)methyl)-5-(3,5-difluorophenyl)-6,7-dihydropyrazolo[1,5-a]pyrazin-4(5H)-one] | 1070 | 2.23 | >28 | > 30000 | – | – | – | – | – | –
6 | Cc1ccc(NCc2cc3n(n2)CCN(c2ccc(F)cc2)C3=O)cc1 [Compound 14, 5-(4-fluorophenyl)-2-((p-tolylamino)methyl)-6,7-dihydropyrazolo[1,5-a]pyrazin-4(5H)-one] | 1540 | -11.8 | >19 | > 30000 | – | – | – | – | – | –
7 | COc1ccc(N(C)Cc2cc3n(n2)CCN(c2cc(Cl)cc(OC)c2)C3=O)cc1 [Compound 134, 5-(3-chloro-5-methoxyphenyl)-2-(((4-methoxyphenyl)(methyl)amino)methyl)-6,7-dihydropyrazolo[1,5-a]pyrazin-4(5H)-one] | 1710 | 1.77 | >17 | > 30000 | – | – | – | – | – | –
8 | O=C1c2cc(CNc3ccccc3)nn2CCN1c1ccc(F)cc1 [drawing 29 X = NH] | – | – | – | – | – | 1320 | 2 | 2040 | 98 | –
9 | CN(Cc1cc2n(n1)CCN(c1ccc(F)cc1)C2=O)c1cccc(Cl)c1 [Compound 87, 2-(((3-chlorophenyl)(methyl)amino)methyl)-5-(4-fluorophenyl)-6,7-dihydropyrazolo[1,5-a]pyrazin-4(5H)-one] | 805 | 0.71 | >12 | > 10000 | 41.9 | – | – | – | – | –
10 | O=C1c2cc(CNc3ccc(OC(F)F)cc3F)nn2CCN1c1ccc(Cl)cc1F [Compound 149, 5-(4-chloro-2-fluorophenyl)-2-(((4-(difluoromethoxy)-2-fluorophenyl)amino)methyl)-6,7-dihydropyrazolo[1,5-a]pyrazin-4(5H)-one] | – | 25.8 | >3 | > 30000 | – | – | – | – | – | > 10000
11 | O=C1c2cc(CNc3ccc(OC(F)F)cc3F)nn2CCN1c1cccc(Cl)c1 [Compound 150, 5-(3-chlorophenyl)-2-(((4-(difluoromethoxy)-2-fluorophenyl)amino)methyl)-6,7-dihydropyrazolo[1,5-a]pyrazin-4(5H)-one] | 1390 | 2.97 | >21 | > 30000 | – | – | – | – | – | –
12 | COc1ccc(N(C)Cc2cc3n(n2)CCN(c2cccnc2)C3=O)cc1 [Compound 121, 2-(((4-methoxyphenyl)(methyl)amino)methyl)-5-(pyridin-3-yl)-6,7-dihydropyrazolo[1,5-a]pyrazin-4(5H)-one] | 4690 | 0.66 | >6.3 | > 30000 | – | – | – | – | – | –
13 | COc1cccc(NCc2cc3n(n2)[C@@H](C)CN(c2ccc(F)cc2)C3=O)c1 [Compound 53, (S)-5-(4-fluorophenyl)-2-(((3-methoxyphenyl)amino)methyl)-7-methyl-6,7-dihydropyrazolo[1,5-a]pyrazin-4(5H)-one] | 10000 | 8.62 | >3.0 | > 30000 | – | – | – | – | – | –
14 | C[C@H]1CN(c2ccc(F)cc2)C(=O)c2cc(CNc3c(F)cc(F)cc3F)nn21 [Compound 80, (S)-5-(4-fluorophenyl)-7-methyl-2-(((2,4,6-trifluorophenyl)amino)methyl)-6,7-dihydropyrazolo[1,5-a]pyrazin-4(5H)-one] | 4320 | -0.58 | 1.79 | 7750 | 95.8 | – | – | – | – | –
15 | COc1cccc(N2CCn3nc(CNc4ccc(OC(F)F)cc4F)cc3C2=O)c1 [Compound 142, 2-(((4-(difluoromethoxy)-2-fluorophenyl)amino)methyl)-5-(3-methoxyphenyl)-6,7-dihydropyrazolo[1,5-a]pyrazin-4(5H)-one] | 863 | 1.5 | >34 | > 30000 | – | – | – | – | – | –
16 | Cc1cnc(N2CCn3nc(CNc4ccc(OC(F)F)cc4F)cc3C2=O)s1 [Compound 137, 2-(((4-(difluoromethoxy)-2-fluorophenyl)amino)methyl)-5-(5-methylthiazol-2-yl)-6,7-dihydropyrazolo[1,5-a]pyrazin-4(5H)-one] | – | – | – | > 30000 | – | – | – | – | – | > 30000
17 | O=C1c2cc(CNc3ccc(F)c(F)c3)nn2CCN1c1ccc(F)cc1 [Compound 31, 2-(((3,4-difluorophenyl)amino)methyl)-5-(4-fluorophenyl)-6,7-dihydropyrazolo[1,5-a]pyrazin-4(5H)-one] | 462 | 2.02 | 5.37 | 2480 | 75.8 | – | – | – | – | –
18 | O=C1c2cc(CNc3ccccc3F)nn2CCN1c1ccc(F)cc1 [drawing 30 X = NH] | – | – | – | – | – | 944 | 2 | 2470 | 96 | –
19 | O=C1c2cc(CNc3cc(Cl)ccn3)nn2CCN1c1ccc(F)cc1 [Compound 164, 2-(((4-chloropyridin-2-yl)amino)methyl)-5-(4-fluorophenyl)-6,7-dihydropyrazolo[1,5-a]pyrazin-4(5H)-one] | 1320 | 2.99 | >7.5 | > 10000 | 35.3 | – | – | – | – | –
20 | COc1ccc(NCc2cc3n(n2)CCN(c2ccc(F)cc2)C3=O)cc1 [Compound 17, 5-(4-fluorophenyl)-2-(((4-methoxyphenyl)amino)methyl)-6,7-dihydropyrazolo[1,5-a]pyrazin-4(5H)-one] | 2120 | 1.55 | >14 | > 30000 | – | – | – | – | – | –
